Reference: PubChem BioAssay AID1919001 (Molecular Pharmacology Branch, DTP, NCI, 2023)
“And” between values parts separate entries of the source, which are not always exact repeats. Equal values may be shown once.

Tested on: 699152-130-R-J1-PDC complex spheroid growth
Test: Anticancer human tumor 699152-130-R-J1-PDC patient-derived pancreatic carcinoma cell line growth inhibition [AhR]
Settings: for viability, T/C: stronger effect = lower value
In short: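 Agents were dosed in half-log steps down from roughly clinical Cmax, or from 10 microM where Cmax was unknown, alone and with AhR antagonists. Read-out: percent test/control growth of tumor spheroids containing HUVEC and MSC stromal cells.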

[1] = curve of first compound, second compound 0.1 µM
[2] = curve of first compound, second compound 0.316 µM
[3] = curve of first compound, second compound 1 µM
[4] = curve of first compound, second compound 3.16 µM
[5] = curve of first compound, second compound 10 µM
[6] = second compound 0.1 µM, first compound 0.0316 µM
[7] = second compound 0.1 µM, first compound 0.1 µM
[8] = second compound 0.316 µM, first compound 0.0316 µM
[9] = second compound 0.316 µM, first compound 0.1 µM
[10] = second compound 1 µM, first compound 0.0316 µM
[11] = second compound 1 µM, first compound 0.1 µM
[12] = second compound 3.16 µM, first compound 0.0316 µM
[13] = second compound 3.16 µM, first compound 0.1 µM
[14] = second compound 10 µM, first compound 0.0316 µM
[15] = second compound 10 µM, first compound 0.1 µM
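Also: compound exposure lasted 7 days after spheroids had grown for 3 days.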

## CC(C)CC(NC(=O)C(Cc1ccccc1)NC(=O)c1cnccn1)B(O)O (centres undefined) + CC(CO)NC(=O)c1cc(-c2ccc(Cl)cc2)nn(-c2cnn(C)c2)c1=O
[1]
  IC50: 5.84 nM
[2]
  IC50: 5.84 nM
[3]
  IC50: 5.39 nM
[4]
  IC50: 5.46 nM
[5]
  IC50: 5.13 nM
Second compound 0.1 µM, first compound 0.000949 µM
  viability, T/C: 91.3%
Second compound 0.1 µM, first compound 0.003 µM
  viability, T/C: 102%
Second compound 0.1 µM, first compound 0.00949 µM
  viability, T/C: 16%
Second compound 0.1 µM, first compound 0.03 µM
  viability, T/C: 1.65%
Second compound 0.1 µM, first compound 0.0949 µM
  viability, T/C: 10.5%
Second compound 0.1 µM, first compound 0.3 µM
  viability, T/C: 0.88%
Second compound 0.316 µM, first compound 0.000949 µM
  viability, T/C: 92.5%
Second compound 0.316 µM, first compound 0.003 µM
  viability, T/C: 115%
Second compound 0.316 µM, first compound 0.00949 µM
  viability, T/C: 10.9%
Second compound 0.316 µM, first compound 0.03 µM
  viability, T/C: 0.58%
Second compound 0.316 µM, first compound 0.0949 µM
  viability, T/C: 0.4%
Second compound 0.316 µM, first compound 0.3 µM
  viability, T/C: 0.53%
Second compound 1 µM, first compound 0.000949 µM
  viability, T/C: 100%
Second compound 1 µM, first compound 0.003 µM
  viability, T/C: 86.1%
Second compound 1 µM, first compound 0.00949 µM
  viability, T/C: 15.2%
Second compound 1 µM, first compound 0.03 µM
  viability, T/C: 3.08%
Second compound 1 µM, first compound 0.0949 µM
  viability, T/C: 0.35%
Second compound 1 µM, first compound 0.3 µM
  viability, T/C: 0.5%
Second compound 3.16 µM, first compound 0.000949 µM
  viability, T/C: 80.9%
Second compound 3.16 µM, first compound 0.003 µM
  viability, T/C: 92.5%
Second compound 3.16 µM, first compound 0.00949 µM
  viability, T/C: 16.2%
Second compound 3.16 µM, first compound 0.03 µM
  viability, T/C: 1.89%
Second compound 3.16 µM, first compound 0.0949 µM
  viability, T/C: 1.77%
Second compound 3.16 µM, first compound 0.3 µM
  viability, T/C: 5.12%
Second compound 10 µM, first compound 0.000949 µM
  viability, T/C: 74.7%
Second compound 10 µM, first compound 0.003 µM
  viability, T/C: 90.8%
Second compound 10 µM, first compound 0.00949 µM
  viability, T/C: 12.6%
Second compound 10 µM, first compound 0.03 µM
  viability, T/C: 1.86%
Second compound 10 µM, first compound 0.0949 µM
  viability, T/C: 0.41%
Second compound 10 µM, first compound 0.3 µM
  viability, T/C: 0.56%

## Cn1ncnc1C1c2n[nH]c(=O)c3cc(F)cc(c23)NC1c1ccc(F)cc1 (centres undefined) + Cc1cncc(-c2nc(NCCc3c[nH]c4ccccc34)c3ncn(C(C)C)c3n2)c1
[1]
  IC50: > 100 nM
[2]
  IC50: > 100 nM
[3]
  IC50: > 100 nM
[4]
  IC50: > 100 nM
[5]
  IC50: < 0.316 nM
Second compound 0.1 µM, first compound 0.000316 µM
  viability, T/C: 95.2%
Second compound 0.1 µM, first compound 0.001 µM
  viability, T/C: 117%
Second compound 0.1 µM, first compound 0.00316 µM
  viability, T/C: 109%
Second compound 0.1 µM, first compound 0.01 µM
  viability, T/C: 115%
[6]
  viability, T/C: 105%
[7]
  viability, T/C: 104%
Second compound 0.316 µM, first compound 0.000316 µM
  viability, T/C: 113%
Second compound 0.316 µM, first compound 0.001 µM
  viability, T/C: 115%
Second compound 0.316 µM, first compound 0.00316 µM
  viability, T/C: 125%
Second compound 0.316 µM, first compound 0.01 µM
  viability, T/C: 115%
[8]
  viability, T/C: 102%
[9]
  viability, T/C: 104%
Second compound 1 µM, first compound 0.000316 µM
  viability, T/C: 125%
Second compound 1 µM, first compound 0.001 µM
  viability, T/C: 117%
Second compound 1 µM, first compound 0.00316 µM
  viability, T/C: 119%
Second compound 1 µM, first compound 0.01 µM
  viability, T/C: 116%
[10]
  viability, T/C: 111%
[11]
  viability, T/C: 124%
Second compound 3.16 µM, first compound 0.000316 µM
  viability, T/C: 128%
Second compound 3.16 µM, first compound 0.001 µM
  viability, T/C: 114%
Second compound 3.16 µM, first compound 0.00316 µM
  viability, T/C: 118%
Second compound 3.16 µM, first compound 0.01 µM
  viability, T/C: 116%
[12]
  viability, T/C: 114%
[13]
  viability, T/C: 99.1%
Second compound 10 µM, first compound 0.000316 µM
  viability, T/C: 26.1%
Second compound 10 µM, first compound 0.001 µM
  viability, T/C: 28.6%
Second compound 10 µM, first compound 0.00316 µM
  viability, T/C: 34.2%
Second compound 10 µM, first compound 0.01 µM
  viability, T/C: 26.6%
[14]
  viability, T/C: 28%
[15]
  viability, T/C: 22.5%

## NS(=O)(=O)OCC1CC(n2ccc3c(NC4CCc5ccccc54)ncnc32)CC1O (centres undefined) + CC(CO)NC(=O)c1cc(-c2ccc(Cl)cc2)nn(-c2cnn(C)c2)c1=O
[1]
  IC50: 831 nM
[2]
  IC50: 765 nM
[3]
  IC50: 679 nM
[4]
  IC50: 626 nM
[5]
  IC50: 602 nM
[6]
  viability, T/C: 108%
[7]
  viability, T/C: 127%
Second compound 0.1 µM, first compound 0.316 µM
  viability, T/C: 120%
Second compound 0.1 µM, first compound 1 µM
  viability, T/C: 36.9%
Second compound 0.1 µM, first compound 3.16 µM
  viability, T/C: 25.2%
Second compound 0.1 µM, first compound 10 µM
  viability, T/C: 29.3%
[8]
  viability, T/C: 116%
[9]
  viability, T/C: 132%
Second compound 0.316 µM, first compound 0.316 µM
  viability, T/C: 97.2%
Second compound 0.316 µM, first compound 1 µM
  viability, T/C: 36.8%
Second compound 0.316 µM, first compound 3.16 µM
  viability, T/C: 27.5%
Second compound 0.316 µM, first compound 10 µM
  viability, T/C: 29.1%
[10]
  viability, T/C: 115%
[11]
  viability, T/C: 126%
Second compound 1 µM, first compound 0.316 µM
  viability, T/C: 91.1%
Second compound 1 µM, first compound 1 µM
  viability, T/C: 30.4%
Second compound 1 µM, first compound 3.16 µM
  viability, T/C: 23.1%
Second compound 1 µM, first compound 10 µM
  viability, T/C: 31.4%
[12]
  viability, T/C: 114%
[13]
  viability, T/C: 127%
Second compound 3.16 µM, first compound 0.316 µM
  viability, T/C: 80.2%
Second compound 3.16 µM, first compound 1 µM
  viability, T/C: 31.6%
Second compound 3.16 µM, first compound 3.16 µM
  viability, T/C: 25.5%
Second compound 3.16 µM, first compound 10 µM
  viability, T/C: 30.6%
[14]
  viability, T/C: 115%
[15]
  viability, T/C: 104%
Second compound 10 µM, first compound 0.316 µM
  viability, T/C: 69.5%
Second compound 10 µM, first compound 1 µM
  viability, T/C: 34.1%
Second compound 10 µM, first compound 3.16 µM
  viability, T/C: 27.1%
Second compound 10 µM, first compound 10 µM
  viability, T/C: 30.8%

## O=C(c1cc(Cc2n[nH]c(=O)c3ccccc23)ccc1F)N1CCN(C(=O)C2CC2)CC1
Compound 0.0316 µM
  viability, T/C: 98.3% and 101% and 99.8%
Compound 0.1 µM
  viability, T/C: 104% and 105% and 98.3%
Compound 0.316 µM
  viability, T/C: 101% and 95% and 92%
Compound 1 µM
  viability, T/C: 104% and 102% and 95.3%
Compound 3.16 µM
  viability, T/C: 98.9% and 93% and 89.2%
Compound 10 µM
  viability, T/C: 103% and 82.8% and 83.2%
Curve of compound
  IC50: > 10000 nM

## Nc1ccccc1NC(=O)c1ccc(CNC(=O)OCc2cccnc2)cc1
Compound 0.0316 µM
  viability, T/C: 91.4% and 87.2% and 106%
Compound 0.1 µM
  viability, T/C: 96.6% and 89.1% and 109%
Compound 0.316 µM
  viability, T/C: 96.1% and 93.6% and 116%
Compound 1 µM
  viability, T/C: 97.1% and 103% and 95%
Compound 3.16 µM
  viability, T/C: 76.1% and 86% and 93.4%
Compound 10 µM
  viability, T/C: 39.1% and 38.4% and 42.8%
Curve of compound
  IC50: 7130 nM and 7650 nM and 8490 nM
